From patent publication US6489118B2, “Allergenic proteins and peptides from dog dander and uses therefor” (ImmuLogic Pharmaceutical Corporation, priority 1992, dated 2002)

Assays:
[1] = system: human T cell lines primed with recombinant Can f I; assay: Secondary human T cell proliferation assay (3H thymidine incorporation); type: cell-based; conditions: for percentage of positive responders (T cell stimulation index of at least two): tested dog allergic individuals
Excerpt: In one embodiment, peptides which have Can f I or Can f II T cell stimulating activity (i.e., the peptide comprises at least one T cell epitope) can be identified using an algorithm which predicts the presence of T cell epitopes in a protein sequence, such as the algorithm described by Hill et al., Journal of Immunology, 147:189-197 (1991). The algorithm of Hill et al. predicts the location of T cell epitopes in a protein by the presence of certain patterns within the sequence which are likely to bind MHC and therefore may contain T cell epitopes. Based on the Hill et al. algorithm, two 13 amino acid peptides (discussed in Example 10) have been identified and produced synthetically. Such peptides were tested for T cell activity as described above (e.g., by measuring cellular uptake of tritiated thymidine). Specifically, in Example 10, human T cell stimulating activity was tested by culturing T cells obtained from an individual sensitive to Can f I (i.e., an individual who has an IgE mediated immune response to Can f I) with a peptide derived from Can f I and proliferation of T cells in response to the peptide was determined, e.g., by measuring cellular uptake of tritiated thymidine. Stimulation indices for responses by T cells to peptides were calculated as the maximum CPM in response to a peptide divided by the control CPM. A stimulation index (S.I.) equal to or greater than two times the background level was considered “positive”. Positive results were used to calculate the mean stimulation index for each peptide for the group of patients tested (See FIG. 25). Preferred peptides of this invention comprise at least one T cell epitope and have a mean T cell stimulation index of greater than or equal to 2.0. A peptide having a mean T cell stimulation index of greater than or equal to 2.0 in a significant number of dog dander allergen sensitive patients tested is considered useful as a therapeutic agent. Preferred peptides have a mean T cell stimulation index of at least 2.5, more preferably at least 3.0, more preferably at least 3.5, more preferably at least 4.0, more preferably at least 5.0 and most preferably at least about 6. For example, peptides having a Can f I activity and having a mean T cell stimulation index of at least 5, as indicated by data shown in FIG. 25, include Construct 1 (SEQ ID NO: 105), Construct 2 (SEQ ID NO: 106), and Construct 3 (SEQ ID NO:107). T cell epitopes can also be predicted and determined as described above for peptides derived from Can f II.
In addition, preferred peptides have a positivity index (P.I.) of at least about 60, more preferably about 100, more preferably at least about 200 and most preferably at least about 300. The positivity index for a peptide is determined by multiplying the mean T cell stimulation index by the percent of individuals, in a population of individuals sensitive to dog dander allergens (e.g., preferably a population of at least 12 individuals, more preferably a population of at least 30 individuals or more), who have a T cell stimulation index to such peptide of at least 2.0. Thus, the positivity index represents both the strength of a T cell response to a peptide (S.I.) and the frequency of a T cell response to a peptide in a population of individuals sensitive to dog dander allergens.
In order to perform in vitro assays of human T cell proliferative response to Can f I and the five Can f I peptides described above, whole blood obtained from subjects allergic to Can f I in a skin prick test was passed through a Lymphocyte Separation Media (LSM) to remove platelets, red blood cells and granulocytes. The resulting peripheral blood mononuclear cells (PBMC) were stimulated with 50 μg/ml of recombinant Can f I produced as described in Example 2 for 6 days in RPMI 1640 medium supplemented with 5% heat inactivated human AB serum, 2 mM L-glutamine,10 mM HEPES, 50 μM 2-mercapto-ethanol and 100 U/ml penicillin and streptomycin. […]

[2] = system: human IgE; assay: Western blot of protein preparations probed with patient plasma IgE; type: binding; conditions: plasma of dog allergic patient #901, 1:20 dilution; 5 μg/lane
Protocol: Western Blot analysis of four different protein preparations as potential sources Can f I was performed. The four different prepparations used for Western blotting were: dog hair extract, dog saliva, bacterially expressed rCan f I (used for the ELISA) and rCan f I as expressed in a mammalian cell culture system. These preparations were loaded on a 15% acrylamide SDS-PAGE (lanes 1-4, respectively) at 5 μg/lane. The protein concentrations were based on the Bicinchoninic acid (BCA) assay (Pierce, Rockford, Ill.). Following electrophoresis, the proteins were transferred to nitrocellulose and stained with India Ink. The nitrocellulose sections were blocked by incubation in Tween solution with 1% milk/1% BSA for 30 minutes room temperature, then probed with patient #901 plasma or negative control patient #250 at a 1:20 dilution in tween mild solution. This first antibody incubation was carried out overnight at room temperature. Biotinylated goat anti-human IgE (KPL) was used as the second antibody at a 1:5000 dilution for a two hour incubation. Streptavidin-HRPO (1:20,000 dilution) and the ECL Western Blot Detection system (Amersham, Arlington Heights, Ill.) were used for detection by chemiluminescence. A 20 second exposure was performed and the film developed. The results from this assay show no recognition of the protein preparations by patient #250 IgE. […]

[3] = system: human IgE; assay: Direct binding of human IgE to recombinant Can f I by ELISA
Protocol: An ELISA plate (IMMULON II Dynatech, Chantilly, Va.) was coated with bacterially expressed recombinant Can f I, (rCan f I) at 0.5 μg/well in PBS-Tween and incubated overnight at 4° C. The coating antigen was removed and the wells were blocked with 0.5% gelatin in PBS, 200 μl/well for two hours at room temperature. Plasma from a skin test positive dog allergic patient, #901, was serially diluted with PBS-Tween and 100 μl was added per well and incubated overnight at 4° C. (the plasma dilutions were tested in duplicate). The second antibody (biotinylated goat anti-human IgE 1:1000, Kirkegaard & Perry Laboratories) was added at 100 μl/well for one hour at room temperature. This solution was removed and streptavidin-HRPO at 1:10,000, (Southern Biotecnology Associates, Inc. Birmingham, Ala.) was added for one hour at room temperature. TMB Membrane Peroxidase Substrate system (Kirkegaard & Perry Laboratories) was freshly mixed and added at 100 μl. The color was allowed to develop for 2-5 minutes. The reaction was stopped by the addition of 100 μl/well of 1M phosphoric acid. The plate was read on a Mircoplate EL 310 Autoreader (Biotek Instruments, Winooski, Vt.) with a 450 nm filter. The absorbance levels of duplicate wells were averaged. […] A known negative patient (#250) was also tested and shown to be negative by this assay.

[4] = system: IgE binding to dog dander extracts; conditions: RAST analysis; cited from earlier work
[5] = system: human IgE; assay: Direct binding ELISA of human IgE to native and recombinant Can f II
Protocol: Plasma samples from 14 dog-allergic patients (skin test 4+) were assayed for IgE binding to native Can f II and rCan f II. An ELISA plate (Immulon II Dynatech, Chantilly, Va.) was coated with native and bacterially expressed recombinant Can f II at 0.5 μg/well in PBS-Tween and incubated overnight at 4° C. The coating antigen was removed and the wells were blocked with 0.5% gelatin in PBS, 200 μl/well for two hours at room temperature. Binding of human IgE to the coating antigen was detected using biotinylated goat-anti-human IgE, streptavidin linked to peroxidase and TMB substrate. Reactions were read on a plate reader at 450 nm (A450). Of 14 plasma samples tested for IgE to native Can f II, 5 contained detectable antibody binding (FIG. 22A), with plasma from patients #901 and #227 containg the highest levels. Similarly, of 23 plasma samples tested for IgE to recombinant, bacterially expressed Can f II, several contained detectable antibody binding (FIGS. 22B and C).

[6] = system: IgE of dog allergic patients; conditions: purified allergen; cited from earlier work

Molecule: A0095: 13 amino acid synthetic peptide, Can f I amino acids 7 through 19 (SEQ ID NO:108) (GKWYLKAMTADQE) [Construct A0095]
- positivity index (mean S.I. x percent positive responders) ([1]; FIG. 10): 129
- mean T cell stimulation index (S.I.) ([1]; mean of positive responses (S.I. >= 2), T cell lines from dog allergic patients primed with rCan f I, FIG. 25): 3.0
- percentage of positive responders (T cell stimulation index of at least two) [1]: 43%

Molecule: A0096: 13 amino acid synthetic peptide, Can f I amino acids 42 through 54 (SEQ ID NO:109) (AKITMLTNGQCQN) [Construct A0096]
- percentage of positive responders (T cell stimulation index of at least two) [1]: 43%

Molecule: Construct 1: recombinant fragment of Can f I, amino acids 1 through 65 (SEQ ID NO: 105), expressed in E. coli with His6
- percentage of positive responders (T cell stimulation index of at least two) [1]: 64%

Molecule: Construct 2: recombinant fragment of Can f I, amino acids 56 through 108 (SEQ ID NO: 106), expressed in E. coli (TVVLHKTSEPGKYTAYEGQRVVFIQPSPVRDHYILYCEGELHGRQIRMAKLLG)
- percentage of positive responders (T cell stimulation index of at least two) [1]: 73%

Molecule: Construct 3: recombinant fragment of Can f I, amino acids 90 through 148 (SEQ ID NO: 107), expressed in E. coli
- percentage of positive responders (T cell stimulation index of at least two) [1]: 82%

Molecule: mammalian expressed rCan f I: recombinant Can f I expressed in a mammalian cell culture system (NIH 3T3), COOH-terminal His6
- IgE binding on Western blot [2]: extremely faint

Molecule: rCan f I: bacterially expressed recombinant Can f I dog allergen with His6 reporter group
- IgE binding on Western blot [2]: distinct binding
- IgE binding level relative to background ([3]; plasma of dog allergic patient #901 at 1/162 dilution, antigen 0.5 μg/well): two-fold above background
- IgE binding, negative control patient ([3]; plasma of known negative patient #250): negative
- percentage of positive responders (T cell stimulation index of at least two) [1]: 89%

B1: Can f I: major dog allergen of Canis familiaris; mature protein of SEQ ID NO: 2; immunoaffinity purified in cited work (protein)
chain: MKTLLLTIGFSLIAILQAQDTPALGKDTVAVSGKWYLKAMTADQEVPEKPDSVTPMILKAQKGGNLEAKITMLTNGQCQNITVVLHKTSEPGKYTAYEGQRVVFIQPSPVRDHYILYCEGELHGRQIRMAKLLGRDPEQSQEALEDFREFSRAKGLNQEILELAQSETCSPGGQ
- depletion of IgE binding to dog dander extracts [4]: 50-70%

B2: Can f II: minor dog dander allergen, affinity purified native protein (de Groot et al.) (protein)
chain: EGNHEEPQGGLEELSGRWHSVALASNKSDLIKPWGHFRVFIHSMSAKDGNLHGDILIPQDGQCEKVSLTAFKTATSNKFDLEYWGHNDLYLAEVDPKSYLILYMINQYNDDTSLVAHLMVRDLSRQQDFLPAFESVCEDIGLHKDQIVVLSDDDRCQGSRD
- competition with the IgE directed against dog dander extract [4]: 23%
- number of plasma samples with detectable IgE antibody binding ([5]; of 14 plasma samples from dog-allergic patients (skin test 4+), FIG. 22A): 5
- dog allergic patients whose IgE reacts with the allergen [6]: 66%

B3: recombinant, bacterially expressed Can f II: bacterially expressed recombinant Can f II with His6 reporter group (protein)
chain: EGNHEEPQGGLEELSGRWHSVALASNKSDLIKPWGHFRVFIHSMSAKDGNLHGDILIPQDGQCEKVSLTAFKTATSNKFDLEYWGHNDLYLAEVDPKSYLILYMINQYNDDTSLVAHLMVRDLSRQQDFLPAFESVCEDIGLHKDQIVVLSDDDRCQGSRD
modifications: left off: small tags and cut ends
notes: bacterially expressed recombinant Can f II with His6 reporter group
- number of plasma samples with detectable IgE antibody binding ([5]; of 23 plasma samples, FIGS. 22B and C): several
